The source made the active and inactive calls. The rule behind the calls is not given here.
Tests used:
[1] = target: Amyloid-beta precursor protein (Homo sapiens) (UniProt P05067); assay: Inhibition of HFIP-pretreated amyloid beta (1 to 42) (unknown origin) aggregation at 10 uM after 36 to 48 hrs by thioflavin-T fluorescence assay relative to control; settings: time 36-48 hrs
Acetylcholinesterase = Acetylcholinesterase (Electrophorus electricus, UniProt O42275); assay: Inhibition of electric eel AChE using acetylthiocholine as substrate preincubated for 5 mins followed by substrate addition and measured after 5 mins by Ellman's method
Sequence of Acetylcholinesterase (O42275 whole entry): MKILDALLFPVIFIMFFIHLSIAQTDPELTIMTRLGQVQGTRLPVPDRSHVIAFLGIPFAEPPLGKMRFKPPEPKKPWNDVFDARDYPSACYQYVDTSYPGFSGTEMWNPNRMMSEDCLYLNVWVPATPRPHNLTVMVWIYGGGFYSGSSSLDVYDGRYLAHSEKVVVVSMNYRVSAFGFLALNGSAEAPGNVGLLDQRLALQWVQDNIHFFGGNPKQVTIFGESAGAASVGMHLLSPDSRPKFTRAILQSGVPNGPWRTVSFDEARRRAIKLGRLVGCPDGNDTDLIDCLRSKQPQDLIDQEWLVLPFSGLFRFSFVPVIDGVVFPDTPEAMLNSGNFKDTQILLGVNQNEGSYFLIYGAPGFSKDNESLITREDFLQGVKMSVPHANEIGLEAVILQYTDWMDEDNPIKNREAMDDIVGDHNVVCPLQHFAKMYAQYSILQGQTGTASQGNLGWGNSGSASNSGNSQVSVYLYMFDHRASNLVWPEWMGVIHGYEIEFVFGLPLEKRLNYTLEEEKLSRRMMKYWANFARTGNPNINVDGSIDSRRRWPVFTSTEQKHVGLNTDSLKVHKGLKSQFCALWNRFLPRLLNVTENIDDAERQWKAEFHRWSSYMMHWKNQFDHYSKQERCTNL

[2] = target: Cholinesterase (Equus caballus) (UniProt P81908); assay: Noncompetitive inhibition of equine serum BuChE assessed as decrease in Vmax with constant Km using varying concentrations of BTC as substrate by Lineweaver-burk and Cornish-Bowden plot analysis
Sequence of Cholinesterase (Equus caballus) (P81908 whole entry): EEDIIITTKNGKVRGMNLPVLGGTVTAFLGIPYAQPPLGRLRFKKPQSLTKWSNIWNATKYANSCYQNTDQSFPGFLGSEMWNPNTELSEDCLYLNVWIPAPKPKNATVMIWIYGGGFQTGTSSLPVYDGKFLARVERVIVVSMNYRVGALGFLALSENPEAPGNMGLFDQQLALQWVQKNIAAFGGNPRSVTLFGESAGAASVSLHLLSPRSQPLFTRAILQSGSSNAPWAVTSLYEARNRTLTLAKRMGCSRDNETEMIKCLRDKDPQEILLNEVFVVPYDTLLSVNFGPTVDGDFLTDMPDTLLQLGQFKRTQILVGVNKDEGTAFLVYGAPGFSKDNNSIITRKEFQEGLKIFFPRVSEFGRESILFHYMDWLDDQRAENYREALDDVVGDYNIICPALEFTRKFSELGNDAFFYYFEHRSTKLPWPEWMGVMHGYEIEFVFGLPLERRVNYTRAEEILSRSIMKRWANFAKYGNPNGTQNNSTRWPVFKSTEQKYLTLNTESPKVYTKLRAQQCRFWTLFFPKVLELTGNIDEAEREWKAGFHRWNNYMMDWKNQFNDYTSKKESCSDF

[3] = target: T1, Sodium- and chloride-dependent GABA transporter 1 (Mus musculus, UniProt P31648); assay: Inhibition of mouse GAT1 expressed in HEK293 cell line assessed as reduction in [3H]GABA uptake incubated for 10 mins; assay type: cell-based
[4] = target: T2, GABA transporter 4 (Mus musculus) (UniProt P31650); assay: Inhibition of mouse GAT3 expressed in HEK293 cell line assessed as reduction in [3H]GABA uptake at 100 uM incubated for 10 mins relative to control; assay type: cell-based
T2 sequence (whole entry): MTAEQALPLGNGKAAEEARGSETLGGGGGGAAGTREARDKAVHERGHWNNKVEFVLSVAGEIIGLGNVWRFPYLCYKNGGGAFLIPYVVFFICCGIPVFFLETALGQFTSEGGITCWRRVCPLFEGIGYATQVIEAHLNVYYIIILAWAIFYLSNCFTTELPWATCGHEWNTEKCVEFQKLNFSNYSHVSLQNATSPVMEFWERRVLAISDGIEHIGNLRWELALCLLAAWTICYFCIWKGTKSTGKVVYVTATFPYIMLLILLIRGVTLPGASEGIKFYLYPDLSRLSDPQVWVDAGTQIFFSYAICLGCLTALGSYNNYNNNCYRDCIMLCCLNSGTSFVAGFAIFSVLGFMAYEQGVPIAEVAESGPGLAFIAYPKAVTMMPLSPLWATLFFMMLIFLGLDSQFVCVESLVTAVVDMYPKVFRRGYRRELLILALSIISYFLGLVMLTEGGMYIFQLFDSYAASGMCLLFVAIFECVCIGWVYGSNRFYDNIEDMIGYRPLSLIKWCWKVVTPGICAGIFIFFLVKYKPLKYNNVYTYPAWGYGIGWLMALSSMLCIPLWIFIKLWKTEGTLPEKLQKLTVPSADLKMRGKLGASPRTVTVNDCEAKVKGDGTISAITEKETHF

[5] = target: T2, GABA transporter 4 (Mus musculus); assay: Inhibition of mouse GAT4 expressed in HEK293 cell line assessed as reduction in [3H]GABA uptake at 100 uM incubated for 10 mins relative to control; assay type: cell-based
[6] = target: Sodium- and chloride-dependent GABA transporter 1 (Mus musculus) (UniProt P31648); assay: Inhibition of NO711 binding to mouse GAT1 expressed in HEK cell membranes at 100 uM incubated for 40 mins in presence of NO711 by LC-ESI-MS/MS analysis relative to control; settings: Membrane
[7] = Neurotoxicity against mouse HT22 cells assessed as cell viability at 10 uM incubated for 24 hrs by MTT assay; assay type: cell-based, HT-22; settings: for Activity: ht-22, 24 h, 10 µM
[8] = Neurotoxicity against mouse HT22 cells assessed as cell viability at 30 uM incubated for 24 hrs by MTT assay; assay type: cell-based, HT-22; settings: for Activity: ht-22, 24 h, 30 µM
[9] = Hepatotoxicity in human HepG2 cells at 50 to 100 uM incubated for 72 hrs by MTS assay; assay type: cell-based; settings: hepg2, 72 h, dose 50-100 µM
[10] = Hepatotoxicity in human HepG2 cells at 1 uM incubated for 72 hrs by MTS assay; assay type: cell-based; settings: hepg2, 72 h
[11] = Metabolic stability in human liver microsomes assessed as parent compound remaining after 120 mins in presence of NADPH regeneration system by UPLC/MS anlaysis; assay type: ADME, Microsome; settings: read-out: Stabilty
Cytochrome P450 3A4 = Cytochrome P450 3A4 (Homo sapiens, UniProt P08684); assay: Inhibition of CYP3A4 (unknown origin) at 10 uM; assay type: ADME
Cytochrome P450 2D6 = Cytochrome P450 2D6 (Homo sapiens, UniProt P10635); assay: Inhibition of CYP2D6 (unknown origin) at 10 uM; assay type: ADME
Cholinesterase [12] = target: Cholinesterase (Equus caballus, UniProt P81908)
Sequence of Cholinesterase (Equus caballus, UniProt P81908) (P81908 whole entry): as the sequence (P81908 whole entry) above
Description: Inhibition of equine serum BuChE using butyrylthiocholine as substrate preincubated for 5 mins followed by substrate addition and measured after 5 mins by Ellman's method

Cholinesterase [13] = target: T3, Cholinesterase (Homo sapiens, UniProt P06276)
T3 sequence (P06276 whole entry): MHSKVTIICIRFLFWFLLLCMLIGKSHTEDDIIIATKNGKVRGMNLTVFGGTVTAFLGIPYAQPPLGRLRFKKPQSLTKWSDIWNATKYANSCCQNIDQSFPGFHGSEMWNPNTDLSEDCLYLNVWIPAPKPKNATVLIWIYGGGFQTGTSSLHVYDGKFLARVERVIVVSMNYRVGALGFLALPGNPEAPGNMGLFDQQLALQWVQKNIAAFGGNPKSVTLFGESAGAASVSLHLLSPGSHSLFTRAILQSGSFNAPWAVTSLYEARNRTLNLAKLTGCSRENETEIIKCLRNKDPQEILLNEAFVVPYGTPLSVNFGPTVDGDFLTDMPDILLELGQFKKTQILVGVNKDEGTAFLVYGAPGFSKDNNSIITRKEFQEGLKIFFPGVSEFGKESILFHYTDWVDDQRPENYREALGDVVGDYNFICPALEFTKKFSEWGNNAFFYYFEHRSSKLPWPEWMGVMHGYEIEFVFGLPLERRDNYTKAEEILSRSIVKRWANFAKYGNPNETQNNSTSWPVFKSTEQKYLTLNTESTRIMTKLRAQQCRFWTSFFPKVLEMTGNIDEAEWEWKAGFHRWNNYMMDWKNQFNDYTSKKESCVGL
Description: Inhibition of human BuchE using butyrylthiocholine as substrate preincubated for 5 mins followed by substrate addition and measured after 5 mins by Ellman's method

Beta-secretase 1 [14] = target: T4, Beta-secretase 1 (Homo sapiens, UniProt P56817)
T4 sequence (P56817 whole entry): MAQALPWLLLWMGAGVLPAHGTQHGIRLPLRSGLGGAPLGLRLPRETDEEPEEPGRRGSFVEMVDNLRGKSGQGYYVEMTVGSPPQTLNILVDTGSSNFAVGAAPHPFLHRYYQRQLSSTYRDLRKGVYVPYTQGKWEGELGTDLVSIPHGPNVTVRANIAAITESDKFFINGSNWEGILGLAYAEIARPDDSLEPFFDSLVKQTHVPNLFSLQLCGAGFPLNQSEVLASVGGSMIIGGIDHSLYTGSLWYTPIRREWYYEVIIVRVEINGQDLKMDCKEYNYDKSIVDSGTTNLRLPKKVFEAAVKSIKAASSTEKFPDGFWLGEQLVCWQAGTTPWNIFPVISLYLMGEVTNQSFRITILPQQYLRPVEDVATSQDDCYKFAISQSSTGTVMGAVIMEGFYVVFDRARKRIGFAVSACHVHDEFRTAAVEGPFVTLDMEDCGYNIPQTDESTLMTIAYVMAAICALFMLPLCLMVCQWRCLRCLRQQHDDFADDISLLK

Beta-secretase 1 [15] = target: T4, Beta-secretase 1; settings: dose 50.0 µM, time 60.0 min
[16] = target: Acetylcholinesterase (Electrophorus electricus) (UniProt O42275); assay: Inhibition of electric eel AChE at 10 uM using acetylthiocholine as substrate preincubated for 5 mins followed by substrate addition and measured after 5 mins by Ellman's method relative to control; settings: time 10.0 min
Sequence of Acetylcholinesterase (Electrophorus electricus) (O42275 24-633 limits assumed): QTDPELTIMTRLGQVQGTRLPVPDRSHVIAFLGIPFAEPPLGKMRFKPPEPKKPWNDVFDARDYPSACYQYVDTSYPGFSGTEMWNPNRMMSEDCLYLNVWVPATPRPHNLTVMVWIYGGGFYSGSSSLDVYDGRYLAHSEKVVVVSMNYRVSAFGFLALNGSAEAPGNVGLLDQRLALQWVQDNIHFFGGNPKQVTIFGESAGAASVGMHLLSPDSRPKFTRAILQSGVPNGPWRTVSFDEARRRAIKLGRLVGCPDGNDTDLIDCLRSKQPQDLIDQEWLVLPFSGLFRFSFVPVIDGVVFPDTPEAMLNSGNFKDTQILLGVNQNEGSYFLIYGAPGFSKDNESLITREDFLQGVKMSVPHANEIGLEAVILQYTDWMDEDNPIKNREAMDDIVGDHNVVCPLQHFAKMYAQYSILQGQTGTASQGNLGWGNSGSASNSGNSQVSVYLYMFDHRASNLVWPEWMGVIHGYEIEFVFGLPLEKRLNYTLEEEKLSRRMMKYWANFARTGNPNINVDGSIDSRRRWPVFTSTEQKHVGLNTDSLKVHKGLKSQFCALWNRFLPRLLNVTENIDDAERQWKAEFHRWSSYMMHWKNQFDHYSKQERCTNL

Cholinesterase [17] = target: T3, Cholinesterase; assay: Inhibition of human BuchE at 1 uM using butyrylthiocholine as substrate preincubated for 5 mins followed by substrate addition and measured after 5 mins by Ellman's method relative to control; settings: time 10.0 min
[18] = target: Sodium- and chloride-dependent GABA transporter 1 (Mus musculus) (UniProt P31648); assay: Inhibition of mouse GAT1 expressed in HEK293 cell line assessed as reduction in [3H]GABA uptake at 100 uM incubated for 10 mins relative to control; assay type: cell-based
[19] = target: T5, GABA transporter 3 (Mus musculus) (UniProt P31649); assay: Inhibition of mouse GAT2 expressed in HEK293 cell line assessed as reduction in [3H]GABA uptake at 100 uM incubated for 10 mins relative to control; assay type: cell-based
T5 sequence (whole entry): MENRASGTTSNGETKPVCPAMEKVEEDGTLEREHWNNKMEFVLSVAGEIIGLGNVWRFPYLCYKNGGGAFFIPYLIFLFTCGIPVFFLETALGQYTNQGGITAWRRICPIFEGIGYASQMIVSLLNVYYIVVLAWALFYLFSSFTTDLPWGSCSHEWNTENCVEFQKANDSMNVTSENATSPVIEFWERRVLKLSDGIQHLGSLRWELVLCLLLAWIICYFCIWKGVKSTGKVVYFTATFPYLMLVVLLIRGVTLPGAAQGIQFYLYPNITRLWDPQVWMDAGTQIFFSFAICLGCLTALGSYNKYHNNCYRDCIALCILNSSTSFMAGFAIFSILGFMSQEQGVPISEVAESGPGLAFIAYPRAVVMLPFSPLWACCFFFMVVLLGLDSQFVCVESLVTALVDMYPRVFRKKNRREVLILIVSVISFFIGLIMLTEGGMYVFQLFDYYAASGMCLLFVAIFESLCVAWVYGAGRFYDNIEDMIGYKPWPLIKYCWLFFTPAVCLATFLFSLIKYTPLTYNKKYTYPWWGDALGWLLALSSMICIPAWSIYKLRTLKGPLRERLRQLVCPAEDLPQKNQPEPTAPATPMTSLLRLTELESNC

[20] = target: Microtubule-associated protein tau (Homo sapiens) (UniProt P10636); assay: Inhibition of tau aggregation (unknown origin) at 10 uM after 72 hrs by thioflavin-T fluorometric assay relative to control
[21] = target: Cholinesterase (Equus caballus) (UniProt P81908); assay: Inhibition of equine serum BuChE at 10 uM using butyrylthiocholine as substrate preincubated for 5 mins followed by substrate addition and measured after 5 mins by Ellman's method relative to control; settings: time 10.0 min
GABA transporter 4 = target: T6, GABA transporter 4 (Mus musculus, UniProt P31650); assay: Inhibition of mouse GAT4 expressed in HEK293 cell line assessed as reduction in [3H]GABA uptake incubated for 10 mins; assay type: cell-based
T6 sequence (P31650 whole entry): T2 sequence (whole entry)

[22] = target: T1, Sodium- and chloride-dependent GABA transporter 1; assay: Inhibition of NO711 binding to mouse GAT1 expressed in HEK cell membranes incubated for 40 mins in presence of NO711 by LC-ESI-MS/MS analysis; set-up: species or system Membrane

Sequence of Amyloid-beta precursor protein (Homo sapiens) (P05067 whole entry): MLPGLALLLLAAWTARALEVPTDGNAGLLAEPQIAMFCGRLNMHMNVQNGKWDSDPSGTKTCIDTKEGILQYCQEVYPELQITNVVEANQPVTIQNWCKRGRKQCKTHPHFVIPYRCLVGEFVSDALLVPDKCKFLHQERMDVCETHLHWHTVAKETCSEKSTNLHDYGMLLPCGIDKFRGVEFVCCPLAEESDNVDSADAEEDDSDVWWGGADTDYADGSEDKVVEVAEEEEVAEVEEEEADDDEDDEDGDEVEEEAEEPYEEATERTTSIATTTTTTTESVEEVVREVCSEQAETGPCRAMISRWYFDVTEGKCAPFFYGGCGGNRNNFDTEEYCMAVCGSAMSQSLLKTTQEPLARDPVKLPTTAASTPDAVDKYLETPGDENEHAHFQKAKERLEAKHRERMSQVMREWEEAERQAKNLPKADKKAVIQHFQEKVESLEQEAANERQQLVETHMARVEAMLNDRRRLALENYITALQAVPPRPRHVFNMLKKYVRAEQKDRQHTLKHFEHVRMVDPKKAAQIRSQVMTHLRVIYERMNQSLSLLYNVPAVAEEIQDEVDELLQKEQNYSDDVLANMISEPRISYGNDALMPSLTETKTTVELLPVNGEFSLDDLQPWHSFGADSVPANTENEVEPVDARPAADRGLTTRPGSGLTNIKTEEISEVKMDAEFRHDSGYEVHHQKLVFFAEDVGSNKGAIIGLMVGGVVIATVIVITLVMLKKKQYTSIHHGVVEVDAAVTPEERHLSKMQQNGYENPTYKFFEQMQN

Structure (SMILES) | inhibition [1] | IC50 [3] | inhibition [4] | inhibition [5] | inhibition [6] | IC50 (Cholinesterase [12]) | IC50 (Cholinesterase [13]) | IC50 (Beta-secretase 1 [14]) | inhibition (Beta-secretase 1 [15]) | inhibition [16] | inhibition (Cholinesterase [17]) | inhibition [21] | also measured
CC(C)(C)c1cccc(CNC[C@@H](O)[C@H](Cc2ccccc2)NC(=O)C(c2ccccc2)c2ccccc2)c1 | 20.5% | 11 µM | 55% | 55% | 82% | 0.06 µM | 0.02 µM | 5.9 µM | – | – | – | – | IC50 (Acetylcholinesterase): 2.86 µM; inhibition [2]: Active; Activity [7]: Non-Toxic; Activity [8]: Toxic; Activity [9]: Toxic; Activity [10]: Non-Toxic; remaining at 2 h [11]: 79.6%; inhibition (INH) (Cytochrome P450 3A4): Active; inhibition (INH) (Cytochrome P450 2D6): Active
CC(C)c1cccc(CNC[C@@H](O)[C@H](Cc2ccccc2)NC(=O)C(c2ccccc2)c2ccccc2)c1 | 20.5% | – | – | – | – | 0.5 µM | 0.08 µM | – | 66% | – | – | – | IC50 (Acetylcholinesterase): 5.13 µM
C[C@H](NC[C@@H](O)[C@H](Cc1ccccc1)NC(=O)CC(c1ccccc1)c1ccccc1)c1ccccc1 | 20.5% | – | 69% | 55% | 66% | 8.86 µM | – | – | 74.1% | < 10% | 36.4% | – | inhibition [18]: 59%; inhibition [19]: 51%; inhibition [20]: 73.1%; viability at 24 h, 10 µM ([7]; HT22 cells, read-out: Activity): 100%; viability at 24 h, 30 µM ([8]; HT22 cells, read-out: Activity): 50%
CC(C)(C)c1ccc(CNCC(O)[C@H](Cc2ccccc2)NC(=O)CC(c2ccccc2)c2ccccc2)cc1 (single isomer, unassigned) | 20.5% | – | – | – | – | 0.17 µM | 0.88 µM | 6.2 µM | – | < 10% | – | – | Activity [7]: Non-Toxic; Activity [8]: Toxic
CC(C)c1cccc(CNC[C@@H](O)[C@H](Cc2ccccc2)NC(=O)CC(c2ccccc2)c2ccccc2)c1 | 20.5% | – | – | – | – | 0.65 µM | 0.5 µM | 4.6 µM | – | 24% | – | – | Activity [9]: Toxic; Activity [10]: Non-Toxic; remaining at 2 h [11]: 67.9%; inhibition (INH) (Cytochrome P450 3A4): Active; inhibition (INH) (Cytochrome P450 2D6): Active
O=C(CC(c1ccccc1)c1ccccc1)N[C@@H](Cc1ccccc1)[C@H](O)CNCC(F)(F)F | 20.5% | – | – | – | – | – | – | – | 24.4% | < 10% | < 10% | 19.2% | –
O[C@@H](CNCc1ccccc1)[C@H](Cc1ccccc1)NCCC(c1ccccc1)c1ccccc1 | 34.7% | 7.59 µM | – | – | – | 0.65 µM | 0.63 µM | – | 58% | < 10% | – | – | IC50 (GABA transporter 4): 5.5 µM; IC50 [22]: 30.2 µM; inhibition [20]: 85.8%; Activity [7]: Toxic
CC(C)(NC[C@@H](O)[C@H](Cc1ccccc1)NC(=O)C(c1ccccc1)c1ccccc1)c1ccccc1 | 20.5% | – | – | – | – | – | – | – | 76.1% | < 10% | < 10% | 45.9% | –
CC(C)(C)CNC[C@@H](O)[C@H](Cc1ccccc1)NCC(c1ccccc1)c1ccccc1 | 34.7% | 26.3 µM | – | – | – | 0.59 µM | 0.19 µM | – | 63.9% | < 10% | – | – | IC50 (GABA transporter 4): 9.77 µM; IC50 [22]: 85.1 µM
O=C(CC(c1ccccc1)c1ccccc1)N[C@@H](Cc1ccccc1)[C@H](O)CNCC1CC1 | 20.5% | 39.8 µM | 51% | – | 83% | 3.23 µM | – | – | < 10% | < 10% | 41.1% | – | inhibition [19]: 60%; IC50 (GABA transporter 4): 35.5 µM
O=C(N[C@@H](Cc1ccccc1)[C@H](O)CNCC(F)(F)F)C(c1ccccc1)c1ccccc1 | 20.5% | – | 92% | 102% | 100% | – | – | 15.4 µM | – | < 10% | < 10% | 26.3% | inhibition [18]: 92%; inhibition [19]: 87%
O=C(CC(c1ccccc1)c1ccccc1)N[C@@H](Cc1ccccc1)[C@@H](O)CNCc1cccc(C(F)(F)F)c1 | 20.5% | – | – | – | – | – | – | 8.3 µM | – | 36.8% | < 10% | 29.5% | –
C[C@H](NC[C@@H](O)[C@H](Cc1ccccc1)NC(=O)C(c1ccccc1)c1ccccc1)c1ccccc1 | 20.5% | – | 84% | 79% | 81% | 1.82 µM | – | – | 61.7% | < 10% | 14.5% | – | inhibition [18]: 77%
